According to PubChem BioAssay AID1117319 (Southern Research Institute, 2015):
Records with an inconclusive call do not appear.

Target: Virion infectivity factor (Human immunodeficiency virus type 1 group M subtype B (isolate BH10)) + Virion infectivity factor (Human immunodeficiency virus type 1 group M subtype B (isolate BRU/LAI)) + Virion infectivity factor (Human immunodeficiency virus type 1 group M subtype B (isolate PCV12)) + Virion infectivity factor (Human immunodeficiency virus type 1 group M subtype B (isolate HXB2)) + DNA dC->dU-editing enzyme APOBEC-3G (Homo sapiens) (UniProt P69720+P69721+P69722+P69723+Q9HC16)
Assay: HIV-1 Vif–A3G interaction blockers – biochemical, TR-FRET, GST-Vif 1-94, biotin-A3G peptide, dose response retest, primary screen (AID 1117319);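 further: Vif residues 1-94 fused to GST binding biotinylated APOBEC3G peptide 110-148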
Details: TR-FRET GST-Vif / biotin-A3G peptide binding

Row | SMILES | IC50 [µM]
1 | COc1cc(C(=O)NCC(c2ccco2)N2CCCC2)ccc1OCc1c(C)noc1C (stereo unspecified) | 99.2
2 | Cc1nc2ncccn2c1-c1csc(NCc2ccco2)n1 | 1.22
3 | O=[n+]1c2c(n([O-])c3cc(Br)ccc31)CCC2 | 19.4
4 | CCN=c1scc(C)n1/N=C/c1ccc(O)c(O)c1O | 2.47
5 | O=[N+]([O-])c1cc2no[n+]([O-])c2cc1N1CCCCC1 | 7.67
6 | CC(C)C(=O)Nc1nnc(Sc2ccc(N(C)C)cc2)s1 | 54.8
7 | C(=C\c1ccco1)/c1ccc2ccccc2n1 | 5.09
8 | Cc1cc(C)c2c(=N)c3ccccc3n(CCCCCCCCn3c4ccccc4c(=N)c4c(C)cc(C)nc43)c2n1 | 1.46
9 | NC(=O)c1c(NC(=O)Cc2cccs2)sc2c1CCC2 | 49.5
10 | O=C1CCCC2=C1C(c1ccco1)Nc1ccc3ccccc3c12 (stereo unspecified) | 4.21
11 | O=C1/C(=C/C=C/c2ccco2)SC(=S)N1NS(=O)(=O)c1ccccc1 | 2.9
12 | CC(=O)NN1C(=O)/C(=C/c2ccc(Br)o2)SC1=S | 11.7
13 | O=C(O)CSc1c2c(nc3cc(C(=O)N4CCOCC4)ccc13)CCCC2 | 5.6
14 | Cc1nc2cc(-c3ccsc3-n3c(C)ccc3C)[nH]n2c(=O)c1Cl | 2.92
15 | c1coc(-c2nc3ccccc3nc2-c2ccco2)c1 | 1.39
16 | O=C(/C=C/c1ccco1)N(c1ccccn1)c1ccccn1 | 3.05
17 | O=c1c(O)cccc2cc(O)c(O)c(O)c12 | 1.03
18 | CC1=C(O)C(=O)C=C2C1=CC=C1C2(C)CCC2(C)C3CC(C)(C(=O)O)CCC3(C)CCC12C (stereo unspecified) | 12.2
19 | c1ccc2c3c([nH]c2c1)CNCC3 | 84.2
20 | CC(C)C1Nc2ccc(C(=O)O)cc2C2C=CCC21 (stereo unspecified) | 8.06
21 | CC(C)(C)C1C/C(=C/c2ccco2)C(=O)/C(=C/c2ccco2)C1 (stereo unspecified) | 2.65
22 | Cc1ccc(-c2nnn(CC(=O)N(c3ccc(F)cc3)C(C(=O)NC3CCCC3)c3ccco3)n2)o1 (stereo unspecified) | 85.8
23 | Cn1cccc1C(=O)NC(=O)COC(=O)CC12CC3CC(CC(Br)(C3)C1)C2 | 58.5

Row | SMILES | IC50 [µM]
24 | Nc1nc(-c2ccco2)c(-c2ccco2)s1 | 0.83
25 | CCOC(=O)N1CCN(C(=O)c2ccc3c(SCC(=O)O)c4c(nc3c2)CCC4)CC1 | 1.9
26 | CCC(=Nc1ccc(N)cc1)C1=C(O)C(C(=O)OC)C(C)(C)CC1=O (stereo unspecified) | 2.01
27 | O=C(CN1CCN(c2ccccc2O)CC1)Nc1ccc2c(c1)CCC2 | 50.8
28 | CNc1ccc(Br)cc(C(=O)/C=C/c2ccc(OC)cc2OC)c1=O | 2.79
29 | COc1c(OC(C)=O)ccc(/C=C/c2ccc3ccccc3n2)c1[N+](=O)[O-] | 97.2
30 | CC(=C/c1ccco1)/C=N/NC(=O)Cc1cccn1C | 1.91
31 | N#Cc1c(NC(=O)CSc2ncnc3sccc23)oc(-c2ccco2)c1-c1ccco1 | 0.95
32 | O=C(O)c1cccc2c1NC(C(=O)O)C1CC(Sc3ccccc3[N+](=O)[O-])C(Cl)C21 (stereo unspecified) | 0.5
33 | c1cnc(N2CCN(c3cnccn3)CC2)nc1 | 14.3
34 | CN1CCc2c(sc3c2c(NCc2ccco2)nc2nnnn23)C1 | 16.2
35 | COc1cc(C(=O)OCCN2CCCCC2)ccc1O | 45.4
36 | Cc1c(NC(=O)c2cc(-c3cccs3)on2)c(=O)n(-c2ccccc2)n1C | 39.9
37 | CC(=O)N1CCN(c2nc(-c3ccco3)c3c(c2C#N)CC(C)(C)SC3)CC1 | 25.3
38 | O=C(NCC1CCCO1)c1cc(-c2ccco2)nc2ccccc12 (stereo unspecified) | 14.4
39 | S=c1[nH]nc(COc2ccc3c(c2)OCO3)n1-c1ccccc1 | 48.3
40 | NS(=O)(=O)c1ccc(N=Nc2c[nH]c(=O)c(O)c2)cc1 | 4.08
41 | Nc1ccccc1NC1=CC(=O)CC(c2ccco2)C1 (stereo unspecified) | 49.4
42 | CCOc1ccc(-n2c(=O)c3c(C)c(C)sc3n(CC(=O)NCc3ccco3)c2=O)cc1 | 74.9
43 | Cc1cc(S(=O)(=O)N(Cc2ccccn2)Cc2ccco2)ccc1-n1cnnn1 | 83.6
44 | Nc1ccc(N2CCN(CCCCN3C(=O)C4CCCN4C3=O)CC2)cc1 (stereo unspecified) | 1.34
45 | O=C1CC(SC(=S)C2CCCC2=O)C(=O)N1 (stereo unspecified) | 27.8
46 | CC(C)(C)c1ccc(-c2nnc(SCCC#N)n2C2CCCC2)cc1 | 86.7

Row | SMILES | IC50 [µM]
47 | COc1ccccc1NCCC(=O)OCC(=O)NCc1ccco1 | 13.9
48 | CCCCN1C(=O)/C(=C/C=C/c2ccco2)C(=O)NC1=S | 4.61
49 | CCOC(=O)C1(C)NC(c2ccco2)C2C(=O)N(CC)C(=O)C21 (stereo unspecified) | 99.2
50 | O=[N+]([O-])c1cc2oc3c(c2c(C=NCc2ccncc2)c1O)CCCC3 | 4.52
51 | CN(C)c1ccc(N2C(=O)CSC2=S)cc1 | 8.37
52 | O=C(/C(=N/N=C/c1ccc(O)c(O)c1O)c1ccccc1)c1ccccc1 | 3.15
53 | COC(=O)CCC(=O)OC1(C)C(=O)C2=COC(c3ccc(OC)cc3)=CC2=C(Br)C1=O (stereo unspecified) | 13.7
54 | O=c1cc(O)n(-c2ccc(F)cc2)c(=S)[nH]1 | 51.5
55 | Cc1oc(-c2ccc(Cl)cc2)cc1-c1nn2c(-c3ccoc3C)nnc2s1 | 1.04
56 | O=C(c1cc(COc2cccc3cccnc23)on1)N1CCC[C@H]1CO | 88.7
57 | Cc1ccc(-n2c(-c3cc(-c4ccco4)[nH]n3)n[nH]c2=S)c(Br)c1 | 6.39
58 | COC(=O)C1=C(O)/C(=C\c2ccc(CNC(=O)C(=O)Nc3ccc(C)c(C)c3)o2)N=C1C | 34.1
59 | CC1Cc2ccccc2N1Cc1cc(=O)n2ccsc2n1 (stereo unspecified) | 7.03
60 | CCOC(=O)NC1(NC2CCCCC2)Oc2ccccc2O1 | 7.31
61 | COc1ccc2nc(NNC(=O)c3cc(=O)c4ccccc4o3)sc2c1 | 26.8
62 | Cc1cccc(NC(=O)CSc2nnc(-c3ccco3)c(-c3ccco3)n2)c1C | 4.3
63 | COC(=O)C1=C(O)/C(=C\c2ccc(CNC(=O)C(=O)Nc3ccc(C)cc3)o2)N=C1C | 24.1
64 | Cc1cc(C)cc(NC(=O)CSc2nc3c(c(=O)n2C)SC(C)C3)c1 (stereo unspecified) | 21.8
65 | Cc1ccc(N2C(=O)/C(=C\c3ccco3)SC2=S)cc1 | 7.72
66 | O=C(COC(=O)c1ccccc1)Nc1ncc([N+](=O)[O-])s1 | 6.6
67 | CC(=O)Nc1cccc(Oc2ncnc3scc(-c4ccccc4)c23)c1 | 16.8
68 | CCn1c(SCC(=O)NCc2ccco2)nnc1-c1cccs1 | 95.8
69 | Cc1ccc(C)n1-c1ccc(-c2nnc3n2CCCCC3)s1 | 8.58

Row | SMILES | IC50 [µM]
70 | Cc1nccn1CC(=O)N/N=C/c1ccc(O)c(O)c1 | 23.2
71 | O=C(NCCO)Nc1ccc2nc(-c3ccco3)c(-c3ccco3)nc2c1 | 0.24
72 | COC/C=C/C1=CC2=CC(=O)C(C)(OC(=O)CCC(=O)OC)C(=O)C2=CO1 (stereo unspecified) | 1.35
73 | CN(C)c1nc(N)nc(CSc2nc3c(c(=O)n(C)c(=O)n3C)n2Cc2ccccc2F)n1 | 60.9
74 | Cc1ccc(NC(=O)CN(C)C(=O)c2cccc(-n3cccc3)c2)cc1 | 4.56
75 | CN=c1scc(C)n1/N=C/c1ccc(O)c(O)c1O | < 1.84
76 | CN(CC(=O)Nc1cccc(F)c1)C(=O)c1cc(-c2ccco2)nc2ccccc12 | 4.8
77 | O=C(N/N=C/c1ccc(O)c(O)c1O)/C(=C/c1ccc([N+](=O)[O-])cc1)NC(=O)c1ccccc1 | 0.87
78 | COc1ccc(NC2CS(=O)(=O)CC2NCc2ccco2)cc1 (stereo unspecified) | 62.7
79 | CC(=O)Nc1ccc(S(=O)(=O)Nc2nc3ccccc3nc2Nc2ccc(N)cc2)cc1 | 0.62
80 | Cc1cc(C(=O)Nc2sc3c(c2C#N)CCCCC3)cs1 | 95.9
81 | N=C1S/C(=C\c2ccco2)C(=O)N1c1ccc2c(c1)OCO2 | 9.26
82 | COc1cccc(NC(=O)CSc2nnc(-c3ccco3)c(-c3ccco3)n2)c1 | 10.2
83 | COC(=O)CSc1nnc(CNC(=O)Cc2ccccc2)n1-c1ccccc1OC | 77.7
84 | COc1cc(C2Nc3cccc4cccc(c34)N2)cc(OC)c1O | < 4.18
85 | CCN1/C(=C(\O)c2ccccc2)C(=O)c2ccccc2S1(=O)=O | 55
86 | COC(=O)c1ccc(=O)c2nc3/c(=C/O)c(O)cc(=O)c3[nH]c12 | 0.35
87 | O=C(c1cccc(-n2cccc2)c1)N1CCN(S(=O)(=O)c2ccccc2)CC1 | 17.3
88 | CCc1cc(=O)oc2cc(C)c(CN3CCCC3)c(O)c12 | 4.07
89 | CCCCN1C2CCCC1CC(NC(=O)c1ccc(OC)c(OC)c1)C2 (stereo unspecified) | 19.1
90 | CCOC(=O)c1ccc2c(c1)C1C=CCC1C(C(=O)O)N2 (stereo unspecified) | 1.25
91 | O=C(NCCS(=O)CCNC(=O)C(F)(F)F)C(F)(F)F | 95
92 | CC1=Nc2nc(N3CCCCC3)c(C#N)c3c4c(nc(c23)N1)N(c1ccc(C(C)C)cc1)C(=O)C4 | 5.27

Row | SMILES | IC50 [µM]
93 | O=C(CSc1ccc(Cl)cc1)c1ccco1 | 10.8
94 | O=C1c2c(O)ccc(O)c2C(=O)c2c(NCCNCCO)ccc(NCCNCCO)c21 | 7.96
95 | O=C1NC(=S)N/C1=C/c1ccc(-c2c(Br)cc([N+](=O)[O-])cc2Br)o1 | 39
96 | O=C(O)CC(C(=O)O)N1C(=O)/C(=C/C=C/c2ccco2)SC1=S (stereo unspecified) | 0.96
97 | Oc1ccc2c(c1)C1CCCC1(N1CCOCC1)O2 (stereo unspecified) | 4.31
98 | Cc1ccc(N2C(=O)/C(=C/c3ccc(CN(CCC#N)S(C)(=O)=O)o3)C(=O)NC2=S)cc1 | 8.32
99 | CC(C)CC(=O)Nc1nnc(-c2ccco2)s1 | 68.1
100 | COc1ccc(C(=O)n2nc(-c3ccc(Cl)cc3)nc2N)cc1OC | 70.9
101 | N=C1/C(=C\c2ccc(SCc3ccco3)o2)C(=O)N=C2SC=NN12 | 1.21
102 | Cc1ccccc1NC(=O)c1c(C)[nH]c(=S)c(C#N)c1-c1ccco1 | 18.7
103 | Nc1cccc2cc(S(=O)(=O)O)ccc12 | 35
104 | NC(=O)C1CCN(C2=C(Cl)C(=O)c3ccccc3C2=O)CC1 | 2.5
105 | COc1ccc2c(c1)O[C@@H](c1ccc3c(c1)OCO3)[C@H](OC(=O)Nc1cc(OC)c(OC)c(OC)c1)C2=O | 66.6
106 | CCN(CC)c1ccc(NC2CC(=O)N(CCc3ccc(OC)cc3)C2=O)cc1 (stereo unspecified) | 6.97
107 | O=C(COC(=O)c1c2c(nc3ccccc13)/C(=C\c1ccco1)CC2)NC1CCCC1 | 3.67
108 | O=[N+]([O-])c1ccc(N2CCN(c3ccc(Cl)nn3)CC2)c(Cl)c1 | 99.1
109 | N#CC1=C(N)OC2=C(CCC/C2=C/c2ccoc2)C1c1ccoc1 (stereo unspecified) | 2.64
110 | CC[n+]1c(/C=C2/C=C(C)CC(C)(C)C2)sc2ccc(OC)cc21 | 21.7
111 | CC[n+]1ccc(C)c2cc(S(=O)C(F)(F)F)ccc21 (stereo unspecified) | 8.8
